According to US12655130B2 (ASSEMBLY BIOSCIENCES, INC., priority 2020, dated 2026):

System: HBV viral load (viral production from HepAD38 cells)
Assay: Activity of test compounds on viral production from HepAD38 cells (viral load by qPCR of HBV core sequence)
Type: cell-based
Conditions: Hepatitis B virus, HePAD38, 120 h, viral load lowering, 5 days, qPCR of supernatant, read-out: VL HepAD38 EC50 range
Procedure, shortened: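 EC50 and CC50 come from four-parameter logistic fits: HBV core DNA in supernatant by TaqMan qPCR against DNA standards, normalised to DMSO controls, and cell viability by CellTiter-Glo. Cells were plated at 50,000/well without tetracycline (2% FBS) and exposed to compounds (highest 10 μM) for 5 days, 37 °C.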

| Compound | EC50 |
| --- | --- |
| CN(C)c1cc(C2(O)CC3CC(c4ncn(C)c4C(=O)Nc4ccc(F)c(Cl)c4)CC3C2)n(C)n1 (stereo not drawn) [Example 199, N-(3-Chloro-4-fluorophenyl)-4-(5-(3-(dimethylamino)-1-methyl-1H-pyrazol-5-yl)-5-hydroxyoctahydropentalen-2-yl)-1-methyl-1H-imidazole-5-carboxamide] | < 0.01 µM |
| CCNc1cc(C2(O)CC3CC(c4ncn(C)c4C(=O)Nc4ccc(F)c(Cl)c4)CC3C2)n(C)n1 (stereo not drawn) [Example 200, N-(3-Chloro-4-fluorophenyl)-4-(5-(3-(ethylamino)-1-methyl-1H-pyrazol-5-yl)-5-hydroxyoctahydropentalen-2-yl)-1-methyl-1H-imidazole-5-carboxamide] | < 0.01 µM |
| CNS(=O)(=O)Nc1cc(C2(O)CC3CC(c4ncn(C)c4C(=O)Nc4ccc(F)c(Cl)c4)CC3C2)n(C)n1 (stereo not drawn) [Example 201, N-(3-Chloro-4-fluorophenyl)-4-(5-hydroxy-5-(1-methyl-3-((N-methylsulfamoyl)amino)-1H-pyrazol-5-yl)octahydropentalen-2-yl)-1-methyl-1H-imidazole-5-carboxamide] | < 0.01 µM |
| CC(CO)Oc1cc(C2(O)CC3CC(c4ncn(C)c4C(=O)Nc4ccc(F)c(Cl)c4)CC3C2)n(C)n1 (stereo not drawn) [Example 202, N-(3-Chloro-4-fluorophenyl)-4-(5-hydroxy-5-(3-((1-hydroxypropan-2-yl)oxy)-1-methyl-1H-pyrazol-5-yl)octahydropentalen-2-yl)-1-methyl-1H-imidazole-5-carboxamide] | < 0.01 µM |
| CCC(O)COc1cc(C2(O)CC3CC(c4ncn(C)c4C(=O)Nc4ccc(F)c(Cl)c4)CC3C2)n(C)n1 (stereo not drawn) [Example 203, N-(3-Chloro-4-fluorophenyl)-4-(5-hydroxy-5-(3-(2-hydroxybutoxy)-1-methyl-1H-pyrazol-5-yl)octahydropentalen-2-yl)-1-methyl-1H-imidazole-5-carboxamide] | < 0.01 µM |
| Cn1cnc(C2CC3CC(O)(c4cc(OCC(O)CO)nn4C)CC3C2)c1C(=O)Nc1ccc(F)c(Cl)c1 (stereo not drawn) [Example 204, N-(3-Chloro-4-fluorophenyl)-4-(5-(3-(2,3-dihydroxypropoxy)-1-methyl-1H-pyrazol-5-yl)-5-hydroxyoctahydropentalen-2-yl)-1-methyl-1H-imidazole-5-carboxamide] | < 0.01 µM |
| Cn1cnc(C2CC3CC(O)(c4cc(OCC(O)C(F)(F)F)nn4C)CC3C2)c1C(=O)Nc1ccc(F)c(Cl)c1 (stereo not drawn) [Example 207, N-(3-Chloro-4-fluorophenyl)-4-(5-hydroxy-5-(1-methyl-3-(3,3,3-trifluoro-2-hydroxypropoxy)-1H-pyrazol-5-yl)octahydropentalen-2-yl)-1-methyl-1H-imidazole-5-carboxamide] | < 0.01 µM |
| CC(O)COc1cc(C2(O)CC3CC(c4ncn(C)c4C(=O)Nc4ccc(F)c(Cl)c4)CC3C2)n(C)n1 (stereo not drawn) [Example 208, N-(3-Chloro-4-fluorophenyl)-4-(5-hydroxy-5-(3-(2-hydroxypropoxy)-1-methyl-1H-pyrazol-5-yl)octahydropentalen-2-yl)-1-methyl-1H-imidazole-5-carboxamide] | < 0.01 µM |
| CC(CO)COc1cc(C2(O)CC3CC(c4ncn(C)c4C(=O)Nc4ccc(F)c(Cl)c4)CC3C2)n(C)n1 (stereo not drawn) [Example 211, N-(3-Chloro-4-fluorophenyl)-4-(5-hydroxy-5-(3-(3-hydroxy-2-methylpropoxy)-1-methyl-1H-pyrazol-5-yl)octahydropentalen-2-yl)-1-methyl-1H-imidazole-5-carboxamide] | < 0.01 µM |
| Cn1cnc(C2CC3CC(O)(c4c(F)c(OCC(C)(C)O)nn4C)CC3C2)c1C(=O)Nc1ccc(F)c(Cl)c1 (stereo not drawn) [Example 212, N-(3-Chloro-4-fluorophenyl)-4-(5-(4-fluoro-3-(2-hydroxy-2-methylpropoxy)-1-methyl-1H-pyrazol-5-yl)-5-hydroxyoctahydropentalen-2-yl)-1-methyl-1H-imidazole-5-carboxamide] | < 0.01 µM |
| Cn1cnc(C2CC3CC(O)(c4c(F)c(OCCO)nn4C)CC3C2)c1C(=O)Nc1ccc(F)c(Cl)c1 (stereo not drawn) [Example 213, N-(3-Chloro-4-fluorophenyl)-4-(5-(4-fluoro-3-(2-hydroxyethoxy)-1-methyl-1H-pyrazol-5-yl)-5-hydroxyoctahydropentalen-2-yl)-1-methyl-1H-imidazole-5-carboxamide] | < 0.01 µM |
| Cn1cnc(C2CC3CC(O)(c4cc(NCC(C)(C)O)nn4C)CC3C2)c1C(=O)Nc1ccc(F)c(Cl)c1 (stereo not drawn) [Example 214, N-(3-Chloro-4-fluorophenyl)-4-(5-hydroxy-5-(3-((2-hydroxy-2-methylpropyl)amino)-1-methyl-1H-pyrazol-5-yl)octahydropentalen-2-yl)-1-methyl-1H-imidazole-5-carboxamide] | < 0.01 µM |
| CCn1nc(NCC(C)(C)O)c(F)c1C1(O)CC2CC(c3ncn(C)c3C(=O)Nc3ccc(F)c(Cl)c3)CC2C1 (stereo not drawn) [Example 215, N-(3-Chloro-4-fluorophenyl)-4-(5-(1-ethyl-4-fluoro-3-((2-hydroxy-2-methylpropyl)amino)-1H-pyrazol-5-yl)-5-hydroxyoctahydropentalen-2-yl)-1-methyl-1H-imidazole-5-carboxamide] | < 0.01 µM |
| CC(C)n1nc(NCC(C)(C)O)c(F)c1C1(O)CC2CC(c3ncn(C)c3C(=O)Nc3ccc(F)c(Cl)c3)CC2C1 (stereo not drawn) [Example 216, N-(3-Chloro-4-fluorophenyl)-4-(5-(4-fluoro-3-((2-hydroxy-2-methylpropyl)amino)-1-isopropyl-1H-pyrazol-5-yl)-5-hydroxyoctahydropentalen-2-yl)-1-methyl-1H-imidazole-5-carboxamide] | < 0.01 µM |
| CC(CO)Nc1cc(C2(O)CC3CC(c4ncn(C)c4C(=O)Nc4ccc(F)c(Cl)c4)CC3C2)n(C)n1 (stereo not drawn) [Example 217, N-(3-Chloro-4-fluorophenyl)-4-(5-hydroxy-5-(3-((1-hydroxypropan-2-yl)amino)-1-methyl-1H-pyrazol-5-yl)octahydropentalen-2-yl)-1-methyl-1H-imidazole-5-carboxamide] | < 0.01 µM |
| Cn1cnc(C2CC3CC(O)(c4cc(OCC(C)(O)CO)nn4C)CC3C2)c1C(=O)Nc1ccc(F)c(Cl)c1 (stereo not drawn) [Example 218, N-(3-Chloro-4-fluorophenyl)-4-(5-(3-(2,3-dihydroxy-2-methylpropoxy)-1-methyl-1H-pyrazol-5-yl)-5-hydroxyoctahydropentalen-2-yl)-1-methyl-1H-imidazole-5-carboxamide] | < 0.01 µM |
| CC(N)C(=O)Nc1cc(C2(O)CC3CC(c4ncn(C)c4C(=O)Nc4ccc(F)c(Cl)c4)CC3C2)n(C)n1 (stereo not drawn) [Example 219, 4-(5-(3-(2-Aminopropanamido)-1-methyl-1H-pyrazol-5-yl)-5-hydroxyoctahydropentalen-2-yl)-N-(3-chloro-4-fluorophenyl)-1-methyl-1H-imidazole-5-carboxamide] | < 0.01 µM |
| CC(C)C(N)C(=O)Nc1cc(C2(O)CC3CC(c4ncn(C)c4C(=O)Nc4ccc(F)c(Cl)c4)CC3C2)n(C)n1 (stereo not drawn) [Example 220, 4-(5-(3-(2-Amino-3-methylbutanamido)-1-methyl-1H-pyrazol-5-yl)-5-hydroxyoctahydropentalen-2-yl)-N-(3-chloro-4-fluorophenyl)-1-methyl-1H-imidazole-5-carboxamide] | < 0.01 µM |
| CC(C)Cn1nc(OCC(C)(C)O)cc1C1(O)CC2CC(c3ncn(C)c3C(=O)Nc3ccc(F)c(Cl)c3)CC2C1 (stereo not drawn) [Example 221, N-(3-Chloro-4-fluorophenyl)-4-(5-hydroxy-5-(3-(2-hydroxy-2-methylpropoxy)-1-isobutyl-1H-pyrazol-5-yl)octahydropentalen-2-yl)-1-methyl-1H-imidazole-5-carboxamide] | < 0.01 µM |
| CCOC(=O)Oc1cc(C2(O)CC3CC(c4ncn(C)c4C(=O)Nc4ccc(F)c(Cl)c4)CC3C2)n(C)n1 (stereo not drawn) [Example 222, 5-(5-(5-((3-Chloro-4-fluorophenyl)carbamoyl)-1-methyl-1H-imidazol-4-yl)-2-hydroxyoctahydropentalen-2-yl)-1-methyl-1H-pyrazol-3-yl ethyl carbonate] | < 0.01 µM |
| O=C(Nc1ccc(F)c(Cl)c1)c1[nH]cnc1C1CC2CC(O)CC2C1 (stereo not drawn) [Example 223] | 0.05 to 0.5 µM |
